Data: patent US20210227837A1, “NATAMYCIN FOR THE PRESERVATION OF A BAKED PRODUCT” (DSM IP ASSETS B.V., priority 2018, published 2021)

Tests used:
Assay type in all cases: physicochemical
[1] = Stability of natamycin solutions in aqueous potassium sorbate (residual natamycin by HPLC)
Experimental: (§1) Natamycin concentrations were determined using […] as follows. • HPLC system: Waters iClass • Column: Waters Symmetry C18, 4.6×150 mm, 3.5 μm, Part No. WAT200632, Column no. 1483, Lot no. 0198313011 • Column temperature: 25° C. • Eluent A: 50 mM ammonium acetate buffer pH 5.8 (with acetic acid) • Eluent B: Acetonitrile • Wash: 60% acetonitrile/40% water (v/v) • Injection volume: 10 μl • Injector temperature: 10° C. in darkness • Flow: 1 mL/min
(§2) The reverse phase HPLC uses a UV detector to determine the residual concentration of natamycin at 303 nm. A set of standard dilutions containing subsequently increasing concentrations of natamycin in methanol was made and from these a calibration curve was obtained. The concentration of natamycin should not exceed a concentration of 88 mg/L. Generally, the dilutions contained 20 mg of sample and […] of methanol.
To obtain a 1% solution, 33 mg of natamycin was used instead of 0.2 g and heating during dissolution was omitted, resulting in a salt/natamycin ratio of 45 (w/w) or 200 (mole/mole). Samples of the mixtures were analyzed over time by HPLC for residual natamycin concentration. The shelf life test of the mixtures was done by storage at low temperatures (4-7° C.) and ambient temperatures (20-24° C.).

[2] = Stability of natamycin solutions in propylene glycol and aqueous sodium lactate (residual natamycin by HPLC); conditions: 4-7° C., pH 7.8, natamycin 1% (w/w)
Experimental: as §1, §2
A […] solution of sodium lactate in water (3 g) was mixed with propylene glycol (16 g) and natamycin (0.2 g) and heated until a final temperature of 105° C. to give a solution with a natamycin concentration of 1% (w/w). […] Samples of the mixtures were analyzed over time by HPLC for residual natamycin concentration. The shelf life test of the mixtures was done by storage at low temperatures (4-7° C.).

[3] = Stability of natamycin solutions in propylene glycol and aqueous sodium acetate or potassium acetate (residual natamycin by HPLC); conditions: 4-7° C., natamycin 1%
Experimental: as §1, §2
A 4.4 M solution of sodium acetate or a 5 M solution of potassium acetate in water (3 g) was mixed with propylene glycol (16 g) and natamycin (0.2 g) and heated until a final temperature of 105° C. to give a solution with a natamycin concentration of 1% (w/w). […] Samples of the mixtures were analyzed over time by HPLC for residual natamycin concentration. The shelf life test of the mixtures was done by storage at low temperatures (4-7° C.) and ambient temperatures (20-23° C.).

C[C@@H]1C/C=C/C=C/C=C/C=C/[C@H](O[C@@H]2O[C@H](C)[C@@H](O)[C@H](N)[C@@H]2O)C[C@@H]2O[C@](O)(C[C@@H](O)C[C@H]3O[C@@H]3/C=C/C(=O)O1)C[C@H](O)[C@H]2C(=O)O [natamycin]
Residual natamycin (%) ([1]; 4-7° C., pH 9.7, natamycin 6% (w/w), day 0): 103%
Residual natamycin (%) ([1]; 4-7° C., pH 9.7, natamycin 6% (w/w), day 5): 103%
Residual natamycin (%) ([1]; 4-7° C., pH 9.7, natamycin 6% (w/w), day 6): 99%
Residual natamycin (%) ([1]; 4-7° C., pH 9.7, natamycin 6% (w/w), day 12): 100%
Residual natamycin (%) ([1]; 4-7° C., pH 9.7, natamycin 6% (w/w), day 31): 92%
Residual natamycin (%) ([1]; 4-7° C., pH 9.7, natamycin 6% (w/w), day 42): 92%
Residual natamycin (%) ([1]; 4-7° C., pH 9.7, natamycin 6% (w/w), day 49): 88%
Residual natamycin (%) ([1]; 4-7° C., pH 9.7, natamycin 6% (w/w), day 69): 80%
Residual natamycin (%) ([1]; 20-24° C., pH 9.6, natamycin 6% (w/w), day 0): 105%
Residual natamycin (%) ([1]; 20-24° C., pH 9.6, natamycin 6% (w/w), day 2): 104%
Residual natamycin (%) ([1]; 20-24° C., pH 9.6, natamycin 6% (w/w), day 6): 98%
Residual natamycin (%) ([1]; 20-24° C., pH 9.6, natamycin 6% (w/w), day 8): 98%
Residual natamycin (%) ([1]; 20-24° C., pH 9.6, natamycin 6% (w/w), day 15): 97%
Residual natamycin (%) ([1]; 20-24° C., pH 9.6, natamycin 6% (w/w), day 20): 95%
Residual natamycin (%) ([1]; 20-24° C., pH 9.6, natamycin 6% (w/w), day 23): 93%
Residual natamycin (%) ([1]; 20-24° C., pH 9.6, natamycin 6% (w/w), day 34): 81%
Residual natamycin (%) ([1]; 20-24° C., pH 9.6, natamycin 6% (w/w), day 65): 73%
Residual natamycin (%) ([1]; 20-24° C., pH 9.9, natamycin 1% (w/w), day 0): 104%
Residual natamycin (%) ([1]; 20-24° C., pH 9.9, natamycin 1% (w/w), day 2): 101%
Residual natamycin (%) ([1]; 20-24° C., pH 9.9, natamycin 1% (w/w), day 6): 97%
Residual natamycin (%) ([1]; 20-24° C., pH 9.9, natamycin 1% (w/w), day 8): 94%
Residual natamycin (%) ([1]; 20-24° C., pH 9.9, natamycin 1% (w/w), day 15): 88%
Residual natamycin (%) ([1]; 20-24° C., pH 9.9, natamycin 1% (w/w), day 20): 79%
Residual natamycin (%) ([1]; 20-24° C., pH 9.9, natamycin 1% (w/w), day 23): 80%
Residual natamycin (%) ([1]; 20-24° C., pH 9.9, natamycin 1% (w/w), day 34): 62%
Residual natamycin (%) ([1]; 20-24° C., pH 9.9, natamycin 1% (w/w), day 65): 45%
Residual natamycin (%) ([2]; day 0): 89%
Residual natamycin (%) ([2]; day 1): 88%
Residual natamycin (%) ([2]; day 3): 84%
Residual natamycin (%) ([2]; day 6): 81%
Residual natamycin (%) ([2]; day 10): 84%
Residual natamycin (%) ([2]; day 27): 71%
Residual natamycin (%) ([2]; day 38): 63%
Residual natamycin (%) ([2]; day 45): 62%
Residual natamycin (%) ([2]; day 65): 45%
Residual natamycin (%) ([3]; Blank (absence of sodium), propylene glycol, pH 6.2, day 0): 80%
Residual natamycin (%) ([3]; Blank (absence of sodium), propylene glycol, pH 6.2, day 12): 43%
Residual natamycin (%) ([3]; Blank (absence of sodium), propylene glycol, pH 6.2, day 23): 22%
Residual natamycin (%) ([3]; Blank (absence of sodium), propylene glycol, pH 6.2, day 30): 12%
Residual natamycin (%) ([3]; Blank (absence of sodium), propylene glycol, pH 6.2, day 31): 7%
Residual natamycin (%) ([3]; Blank (absence of sodium), propylene glycol, pH 6.2, day 50): 1%
Residual natamycin (%) ([3]; propylene glycol + aqueous sodium acetate, pH 8.2, day 0): 98%
Residual natamycin (%) ([3]; propylene glycol + aqueous sodium acetate, pH 8.2, day 31): 72%
Residual natamycin (%) ([3]; propylene glycol + aqueous sodium acetate, pH 8.2, day 51): 58%
